Laboratory results taken from publication PMC8533176, “1,5-Benzodiazepin-2(3H)-ones: In Vitro Evaluation as Antiparkinsonian Agents” (Antioxidants, 2021).
Like-named read-outs stand apart in the source and are kept apart here.

What was measured:
[1] = Kinetic solubility by UV spectrometry; assay type: physicochemical; conditions: PBS 50 mM, aqueous buffer, kinetic from dmso stock
Description: A modified protocol was used from that described by Hoelke et al. for the determination of the kinetic solubility from DMSO compound solutions. A compound calibration curve (compound concentration vs UV absorption) was prepared for each compound with concentrations of 10, 20, 50, 100, and 200 µM. Each compound dilution was carried out by pipetting defined volumes of a 20 mM stock compound solution in DMSO into vials and adding PBS 50 mM to reach a final volume of 1 mL/well. The final amount of DMSO per well was 2%. For the lower compound concentrations, an additional volume of DMSO was added to each well to reach 2% DMSO. Then, 200 µL of each dilution was transferred to a new 96-well culture plate for the measurement of the UV-spectra. One well in each row was left without a compound as a blank, and its UV absorbance was used as an offset correction. The experiments were performed in duplicate.
In parallel, compound saturation solutions were reached and filtered from 20 mM compound stock in DMSO: 10 µL of a 20 mM stock solution was dispensed into 190 µL of PBS 10 mM. The solutions were mixed, shaken on a microplate shaker for two hours, and then 160 µL of each solution was filtered and transferred to a new well plate for UV absorption measurement.
Measurement of the UV-spectra was performed using a Varioskan microplate reader, and spectra were taken in the range of 270–600 nm. Spectral bandwidth was set to 5 nm, and the data pint interval was 10 nm. The experiments were carried out in triplicate.

[2] = Ferric reducing antioxidant power (FRAP) assay; assay type: biochemical; design: FRAP Assay Trolox Equivalents: unit not given here; conditions: for FRAP Assay Antioxidant Capacity (%) at 100 uM: compound at 100 uM; for FRAP Assay Antioxidant Capacity (%) at 200 uM: compound at 200 uM
Description: FRAP reagent was prepared by mixing 10 mL of 300 mM acetate buffer with 1 mL of 10 mM 2,4,6-tripyridyl-S-triazine (TPTZ) in HCl 40 mM and 1mL of FeCl3·6H2O 20 mM. […] Trolox was used as assay control.

[3] = ABTS radical scavenging assay; assay type: biochemical; conditions: for IC50: 30-min incubation; for ABTS Assay TEAC50: Equivalent antioxidant capacity at Trolox 50 mM; for ABTS Assay TEAC100: Equivalent antioxidant capacity at Trolox 100 mM
Description: The mixture was stored in the dark at room temperature for 16 h. […] All the compounds tested were dissolved in EtOH. […] The degree of decolorization was calculated as the percentage reduction of absorbance. […] Trolox was used as a reference antioxidant.

SH-SY5Y cells = assay: Cytotoxicity, MTT assay, SH-SY5Y; assay type: cell-based; conditions: Homo sapiens, read-out: SH-SY5Y IC50
Description: (§1) All compounds tested were dissolved and eventually further diluted in dimethylsulfoxide (DMSO). After overnight incubation, the cells were treated with different compound concentrations (5, 10, 20, 50, 100, 150, 200 µM) in a final volume of 200 µL with four replicates each. […] Cell proliferation or viability was measured using the 3-(4,5-dimethylthiazol-2-yl)-2,5-diphenyl tetrazolium bromide (MTT) assay. The MTT assay was optimized taking into account the number of cells plated per well, to work in the linear part of the cell density vs. MTT absorbance calibration curve, which allows achieving a maximum absorbance in the range of 0.8–1.0 in each well at the end of the experiment. In addition to that, the number of cells seeded for each experiment was optimized in agreement with the time scale of the experiment.
(§2) After cell treatment, 20 µL of MTT (5 mg/mL) was added to each well, and the plate was incubated at 37 °C in the dark for 2 h. Supernatants were removed, and the formazan crystals were solubilized in DMSO (200 µL/well), under 10 min shaking at room temperature. The reduction of MTT was quantified by absorbance at 570 nm in a Varioskan microplate reader (Thermo Fisher Scientific, Vantaa, Finland). Effects of the test compounds on cell viability were calculated using cells treated with a vehicle as a control. For IC50 and LD50 calculations, the data were subjected to linear regression analysis, and the regression lines were plotted for the best fit. The IC50 (inhibition of cell viability) concentrations were calculated using the respective dose–response curves.

HepG2 cells = assay: Cytotoxicity, MTT assay, HepG2; assay type: cell-based; conditions: Homo sapiens
Description: as §1, §2

[4] = HepG2, MTT, cytotoxicity, read-out: HepG2 IC50

SMILES	solubility [1] [µM]	melting point [°C]	FRAP Assay Trolox Equivalents [2]	FRAP Assay Antioxidant Capacity (%) at 100 uM [2] [%]	FRAP Assay Antioxidant Capacity (%) at 200 uM [2] [%]	IC50 [3] [µM]	ABTS Assay TEAC50 [3]	ABTS Assay TEAC100 [3]	IC50 (SH-SY5Y cells; MTT, cytotoxicity) [µM]	IC50 (HepG2 cells; [4]) [µM]	IC50 (SH-SY5Y cells) [µM]	IC50 (HepG2 cells; HepG2, read-out: HepG2 IC50) [µM]
CC1=Nc2c(F)c(F)c(F)c(F)c2NC(=O)C1 [Compound 1, 6,7,8,9-Tetrafluoro-4-methyl-1H-1,5-benzodiazepin-2(3H)-one]	> 200	155.2	0.01	0.5	0.5	576 ± 40	0.33	0.16	> 250	> 250	–	–
CC1=Nc2c(F)c(F)c(F)c(F)c2N(C)C(=O)C1 [Compound 2, 6,7,8,9-tetrafluoro-1,4-dimethyl-1H-1,5-benzodiazepin-2(3H)-one]	> 200	132.2	0.02	1.00	0.5	> 1000	–	–	> 250	> 250	–	–
O=C1CC(c2ccccc2)=Nc2c(F)c(F)c(F)c(F)c2N1 [Compound 3, 6,7,8,9-tetrafluoro-4-phenyl-1H-1,5-benzodiazepin-2(3H)-one]	< 100	253.3	0.03	1.5	1.8	> 1000	–	–	> 250	> 250	–	–
CN1C(=O)CC(c2ccccc2)=Nc2c(F)c(F)c(F)c(F)c21 [Compound 4, 6,7,8,9-tetrafluoro-4-phenyl-1-methyl-1H-1,5-benzodiazepin-2(3H)-one]	–	133.7	0.02	1.1	1.3	> 1000	–	–	> 250	> 250	–	–
O=C1CC(c2ccccc2F)=Nc2c(F)c(F)c(F)c(F)c2N1 [Compound 5, 6,7,8,9-tetrafluoro-4-(2-fluorophenyl)-1H-1,5-benzodiazepin-2(3H)-one]	< 20	248.1	0.03	1.4	5.5	658 ± 96	0.32	0.15	> 250	> 250	–	–
CN1C(=O)CC(c2ccccc2F)=Nc2c(F)c(F)c(F)c(F)c21 [Compound 6, 6,7,8,9-tetrafluoro-4-(2-fluorophenyl)-1-methyl-1H-1,5-benzodiazepin-2(3H)-one]	< 200	142.6	0.02	1.1	1.6	> 1000	–	–	–	–	> 250	> 250
O=C1CC(c2ccccc2Cl)=Nc2c(F)c(F)c(F)c(F)c2N1 [Compound 7, 6,7,8,9-tetrafluoro-4-(2-chlorophenyl)-1H-1,5-benzodiazepin-2(3H)-one]	< 50	211.7	0.01	0.6	0.4	635 ± 87	0.35	0.16	135 ± 11.2	201 ± 13.1	–	–
CN1C(=O)CC(c2ccccc2)=Nc2ccc(F)cc21 [Compound 12, 8-Fluoro-1-methyl-4-phenyl-1H-1,5-benzodiazepin-2(3H)-one]	> 200	–	0.02	0.8	1.4	> 1000	–	–	–	–	240 ± 24.9	230 ± 25.5
O=C1CC(c2ccccc2)=Nc2cc(F)cc(F)c2N1 [Compound 15, 7,9-Difluoro-4-phenyl-1H-1,5-benzodiazepin-2(3H)-one]	< 10	–	0.07	3.8	6.2	496 ± 82	0.34	0.15	> 250	> 250	–	–
CN1C(=O)CC(c2ccccc2)=Nc2cc(F)cc(F)c21 [Compound 16, 7,9-Difluoro-1-methyl-4-phenyl-1H-1,5-benzodiazepin-2(3H)-one]	> 200	–	0.00	0	0	> 1000	–	–	> 250	> 250	–	–
CN1C(=O)CC(c2ccccc2)=Nc2ccccc21 [Compound 19, 1-Methyl-4-phenyl-1H-1,5-benzodiazepin-2(3H)-one]	> 200	–	0.03	1.7	3.5	> 1000	–	–	–	–	201 ± 27	> 250
COc1cc(C2=Nc3cc(Cl)c(Cl)cc3NC(=O)C2)cc(OC)c1OC [Compound 23, 7,8-Dichloro-4-(3,4,5-trimethoxyphenyl)-1H-1,5-benzodiazepin-2(3H)-one]	< 20	246	0.03	2.7	4.6	> 500	–	–	> 250	–	–	–
Cc1c(C)c2c(c(C)c1O)CCC(C)(C(=O)O)O2 (centres unmarked) [Trolox, reference compound]	–	–	1	51.3	100	25.1 ± 1.2	1	1	–	–	–	–
